Measurements published in US20240043439A1, “COMPOUNDS AS C5AR INHIBITORS” (Kira Pharmaceuticals (Suzhou) Ltd., priority 2020, published 2024).

Assays:
[1] = target: human C5a receptor (C5aR) (Homo sapiens (Human), UniProt P21730); experiment: Inhibition of C5a-C5aR binding (biotinylated human C5a, U937/C5aR cells, FACS)
Summary of the method: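 Binding read by flow cytometry as FITC-streptavidin signal (30 min on ice) on washed cells after a 120 min on-ice incubation of compound with biotinylated human C5a (30 nM working solution). Cells used were C5aR-transfected U937, suspended at 3×10^6 cells/ml in PBS containing 0.1% BSA.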

[2] = target: T1, C5aR (Homo sapiens (Human), UniProt P21730); experiment: Inhibition of C5a-C5aR binding determined by cell migration assay (U937/C5aR cells); type: cell-based; conditions: U937/C5aR cell migration towards human C5a, 180 min
T1 sequence (P21730 whole entry): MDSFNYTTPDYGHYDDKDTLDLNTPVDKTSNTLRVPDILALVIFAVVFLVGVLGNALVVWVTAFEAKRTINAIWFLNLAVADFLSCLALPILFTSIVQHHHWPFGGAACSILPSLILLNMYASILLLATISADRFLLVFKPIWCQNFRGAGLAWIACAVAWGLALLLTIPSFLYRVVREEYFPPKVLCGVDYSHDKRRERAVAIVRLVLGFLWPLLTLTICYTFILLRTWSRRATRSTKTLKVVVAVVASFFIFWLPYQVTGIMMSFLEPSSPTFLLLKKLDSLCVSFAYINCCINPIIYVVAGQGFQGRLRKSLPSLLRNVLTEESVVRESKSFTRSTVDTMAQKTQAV
Summary of the method: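 Transwell migration through 3.0 µm pores: U937/C5aR cells in HBSS + 1% FBS were premixed with compound, with human C5a plus compound in the bottom well. After 30 min preincubation, cells migrated 180 min at 37 °C. Migrated cells were quantified by CellTiter-Glo luminescence.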

[3] = target: T1, C5aR; experiment: Calcium mobilization (U937/C5aR or HEK293/C5aR cells, FLIPR); type: cell-based; conditions: agonist human C5a at EC80, FLIPR
Summary of the method: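 FLIPR calcium-flux read-out using Fluo-4 Direct-loaded C5aR-expressing U937 or HEK293 cells stimulated with human C5a at its EC80. Compound was applied for 60 min before dye loading (50 min at 37 °C plus 10 min at room temperature) and agonist addition.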

[4] = tested on: human C5a (hC5a) induced neutropenia; experiment: C5a induced neutropenia in a cynomolgus model; type: in vivo; conditions: cynomolgus monkey, pre-dosed 4 hours before hC5a, compared to vehicle
Protocol: (§1) To study the efficacy of compounds in a non-human primate model, human C5a (hC5a) induced neutropenia is studied in a cynomolgus model. Intravenous injection of hC5a induced upregulation of adhesion molecules on blood vessel walls, leading to decreased neutrophils in the blood stream and attached to the vascular walls. Monkeys were pre-dosed with vehicle or specific compound, and 4 hours later, hC5a (10 g/kg, ACROBiosystems) was administrated and 1 minute later neutrophils are quantified in peripheral blood.
The percent change in the number of neutrophils in the blood collected after C5a injection (241 min) was calculated relative to the sample collected prior to C5a injection (239 min). The plasma concentration of each compound was calculated as the average concentration prior to C5a injection of 2 individual monkeys.

[5] = tested on: human C5a induced neutropenia; experiment: C5a induced neutropenia in human C5aR knock-in mice model; type: in vivo; conditions: 0.3 mg/kg and 3 mg/kg, pre-dosed 2 hours before hC5a
Protocol: as §1, with “an animal” for “a non-human primate”, “C5aR knock-in mice were created by replacing the coding region of mouse C5aR with human C5aR coding sequence.” for “C5a (hC5a) induced neutropenia is studied in a cynomolgus model.”, “Human C5aR knock-in mice” for “Monkeys”, “2” for “4”, “human C5a ([…]” for “hC5a (10”
The percent change in the number of neutrophils in the blood collected after C5a injection (121 min), relative to the sample collected prior to C5a injection (119 min). The plasma concentration of each compound is the average concentration prior to C5a injection of 3 individual mice.

[6] = tested on: C5a induced CD11b upregulation on granulocytes; experiment: Neutrophil CD11b FACS assay, cyno monkey whole blood after oral pre-dosing; type: in vivo; conditions: oral pre-dosing at 10 mg/kg; for EC50 at 10 mg/kg: Macaca fascicularis, Neutrophil, read-out: EC50 (C5a induced CD11b upregulation on granulocytes ex-vivo)
Protocol: (§2) Peripheral blood samples were collected from Cynomolgus monkey/huC5aR knock-in mice at indicated timepoints. 100 μl aliquots were mixed with a range of C5a concentrations and incubated at 37° C. for 30 min. Blood was cooled down on wet ice for at least 3 min, anti-CD11b monoclonal antibody (BD Biosciences) was added and incubated at 4° C. for 60 min. Red blood cells were lysed by adding erythrocyte lysis buffer (Solarbio) and incubated on ice for 10 min, white blood cells were washed by pre-cold PBS twice and suspended by 2% PFA/PBS buffer. Neutrophils were classified with flow cytometry by their forward/side-scatter properties and mean fluorescence intensity of anti-CD11b staining on cells was read by FACS (Beckman).
The percent of CD11b signal was calculated by the formula %=(MFI[C5a conc.]-MFI[C5a=0])/(MFI[max]-MFI[C5a=0])×100%. Each data point was the average of 2 individual monkeys. The plasma concentration of each compound is the average concentration prior to C5a injection of 2 individual monkeys.

[7] = tested on: C5a induced CD11b upregulation on neutrophil; experiment: Neutrophil CD11b FACS assay, human C5aR knock-in mice whole blood after oral pre-dosing; type: in vivo; conditions: oral pre-dosing 0.3 mg/kg and 3 mg/kg
Protocol: as §2
(§3) Whole blood was collected at indicated timepoints (2 hours or 12 hours after dosing compound) and further stimulated with human C5a in vitro. CD11b FACS antibody was added and incubate for 60 min at 4 C before red blood cells were lysed. The percent of CD11b signal was calculated by the formula %=(MFI[C5a conc.]-MFI[C5a=0])/(MFI[max]-MFI[C5a=0])×100%. Each data point was the average SD of 3 individual mice.
as §3, with “2 hrs” for “indicated timepoints (2 hours or 12 hours”, “compound” for “compound)”, “average” for “average SD”, “2” for “3”
as §3, with “2 hrs” for “indicated timepoints (2 hours or 12 hours”, “compound” for “compound)”, “average±SD” for “average SD”, “2” for “3”

human C5a receptor (C5aR), sequence (P21730 whole entry): as above

Row | SMILES | IC50 [1] [nM] | IC50 [2] [nM] | IC50 [3] [nM] | EC50 at 10 mg/kg [6] [nM] | rescue of neutropenia induced by human C5a [4] | rescue of neutropenia induced by human C5a [5] | C5a induced CD11b upregulation on granulocytes ex-vivo [6] | CD11b upregulation on neutrophil ([7]; 2 hours after dosing) | CD11b upregulation on neutrophil ([7]; 2 hours and 12 hours post-dosing)
1 | Cc1cccc(F)c1C(=O)N1C(c2ccc(NC3CCOCC3)cc2)C(C(=O)Nc2ccc3c(cnn3C)c2)C[C@@H]2CCC[C@@H]21 (relative stereo) [Compound 158, cis-1-(2-fluoro-6-methylbenzoyl)-N-(1-methyl-1H-indazol-5-yl)-2-(4-((tetrahydro-2H-pyran-4-yl)amino)phenyl)octahydro-1H-cyclopenta[b]pyridine-3-carboxamide] | < 50 | < 50 | 50 to 500 |  |  |  |  |  | 
2 | Cc1ccc(NC(=O)C2C[C@@H]3CCC[C@@H]3N(C(=O)c3cocn3)C2c2ccc(NC3CCCC3)cc2)cc1C(F)(F)F (relative stereo) [Compound 110, cis-2-(4-(cyclopentylamino)phenyl)-N-(4-methyl-3-(trifluoromethyl)phenyl)-1-(oxazole-4-carbonyl)octahydro-1H-cyclopenta[b]pyridine-3-carboxamide] | 50 to 500 | 50 to 500 | > 10000 |  |  |  |  |  | 
3 | Cc1ccc(NC(=O)[C@H]2CCCN(c3ncnc4cnccc34)[C@H]2c2ccc(NC3CCCC3)cc2)cc1C(F)(F)F [Compound 162, (2R,3S)-2-(4-(cyclopentylamino)phenyl)-N-(4-methyl-3-(trifluoromethyl)phenyl)-1-(pyrido[3,4-d]pyrimidin-4-yl)piperidine-3-carboxamide] | 50 to 500 | 500 to 2000 | 2000 to 10000 |  |  |  |  |  | 
4 | Cc1ccc(NC(=O)C2C[C@H]3CCC[C@H]3N(C(=O)C3CCOCC3)[C@H]2c2ccc(NC3CCCC3)cc2)cc1C(F)(F)F (relative stereo) [Compound 111, cis-2-(4-(cyclopentylamino)phenyl)-N-(4-methyl-3-(trifluoromethyl)phenyl)-1-(tetrahydro-2H-pyran-4-carbonyl)octahydro-1H-cyclopenta[b]pyridine-3-carboxamide] | 50 to 500 | 50 to 500 | 2000 to 10000 |  |  |  |  |  | 
5 | Cc1ccc(NC(=O)[C@H]2OCCN(C(=O)c3c(C)cccc3F)[C@H]2c2ccc(NC3CCCC3)cc2)cc1C(F)(F)F (relative stereo) [Compound 187, cis-3-(4-(cyclopentylamino)phenyl)-4-(2-fluoro-6-methylbenzoyl)-N-(4-methyl-3-(trifluoromethyl)phenyl)morpholine-2-carboxamide] | 50 to 500 | 50 to 500 | 2000 to 10000 |  |  |  |  |  | 

Further lines, with some results ahead:

Row | IC50 [1] [nM] | IC50 [2] [nM] | IC50 [3] [nM] | EC50 at 10 mg/kg [6] [nM] | SMILES | rescue of neutropenia induced by human C5a [4] | rescue of neutropenia induced by human C5a [5] | C5a induced CD11b upregulation on granulocytes ex-vivo [6] | CD11b upregulation on neutrophil ([7]; 2 hours after dosing) | CD11b upregulation on neutrophil ([7]; 2 hours and 12 hours post-dosing)
6 | < 50 | < 50 | 500 to 2000 | 256 | Cc1cccc(F)c1C(=O)N1[C@@H]2CCC[C@@H]2C[C@H](C(=O)Nc2ccc3c(cnn3C)c2)[C@@H]1c1ccc(NC2CCCC2)cc1 [Compound 49, (2R,3S,4aR,7aR)-2-(4-(cyclopentylamino)phenyl)-1-(2-fluoro-6-methylbenzoyl)-N-(1-methyl-1H-indazol-5-yl)octahydro-1H-cyclopenta[b]pyridine-3-carboxamide] | effectively rescued the neutropenia | effectively rescued the neutropenia | blocked | blocked | blocked
7 | 50 to 500 | < 50 | < 50 | 276 | Cc1ccc(NC(=O)[C@H]2C[C@H]3CCC[C@H]3N(C(=O)c3c(C)cccc3F)[C@H]2c2ccc(NC3CCCC3)cc2)cc1C(F)(F)F [Compound 47, (2R,3S,4aR,7aR)-2-(4-(cyclopentylamino)phenyl)-1-(2-fluoro-6-methylbenzoyl)-N-(4-methyl-3-(trifluoromethyl)phenyl)octahydro-1H-cyclopenta[b]pyridine-3-carboxamide] | effectively rescued the neutropenia |  | blocked | blocked | 
8 | < 50 | < 50 | 500 to 2000 |  | Cc1cccc(F)c1C(=O)N1[C@@H]2CCC[C@@H]2C[C@H](C(=O)Nc2ccc3c(cnn3C)c2)[C@@H]1c1ccc(NC2CCOCC2)cc1 [Compound 89, (2R,3S,4aR,7aR)-1-(2-fluoro-6-methylbenzoyl)-N-(1-methyl-1H-indazol-5-yl)-2-(4-((tetrahydro-2H-pyran-4-yl)amino)phenyl)octahydro-1H-cyclopenta[b]pyridine-3-carboxamide] |  |  |  | blocked | 
9 | < 50 | < 50 | 500 to 2000 |  | Cc1cccc(F)c1C(=O)N1[C@@H]2CCC[C@@H]2C[C@H](C(=O)Nc2ccc(N(C)C)cc2)[C@@H]1c1ccc(NC2CCCC2)cc1 [Compound 51, (2R,3S,4aR,7aR)-2-(4-(cyclopentylamino)phenyl)-N-(4-(dimethylamino)phenyl)-1-(2-fluoro-6-methylbenzoyl)octahydro-1H-cyclopenta[b]pyridine-3-carboxamide] |  |  |  |  | 
10 | 50 to 500 | 50 to 500 | 2000 to 10000 |  | Cc1cccc(F)c1C(=O)N1[C@@H]2CCC[C@@H]2C[C@H](C(=O)Nc2cnn(C)c2)[C@@H]1c1ccc(NC2CCCC2)cc1 [Compound 54, (2R,3S,4aR,7aR)-2-(4-(cyclopentylamino)phenyl)-1-(2-fluoro-6-methylbenzoyl)-N-(1-methyl-1H-pyrazol-4-yl)octahydro-1H-cyclopenta[b]pyridine-3-carboxamide] |  |  |  |  | 
11 | 50 to 500 | 50 to 500 | 50 to 500 |  | Cc1cccc(F)c1C(=O)N1C2CCC[C@@H]2C[C@H](C(=O)Nc2cccc(C(F)(F)F)c2)[C@@H]1c1ccc(NC2CCCC2)cc1 (relative stereo) [Compound 46, cis-2-(4-(cyclopentylamino)phenyl)-1-(2-fluoro-6-methylbenzoyl)-N-(3-(trifluoromethyl)phenyl)octahydro-1H-cyclopenta[b]pyridine-3-carboxamide] |  |  |  |  | 
12 | < 50 | 50 to 500 | > 10000 |  | Cc1ccc(NC(=O)C2C[C@H]3CCC[C@H]3N(C(=O)c3cscn3)C2c2ccc(NC3CCCC3)cc2)cc1C(F)(F)F (relative stereo) [Compound 114, cis-2-(4-(cyclopentylamino)phenyl)-N-(4-methyl-3-(trifluoromethyl)phenyl)-1-(thiazole-4-carbonyl)octahydro-1H-cyclopenta[b]pyridine-3-carboxamide] |  |  |  |  | 
